The results in this text go back to PMC10648541, “Design, Synthesis, and Antiproliferative Activity of Selective Histone Deacetylases 6 Inhibitors Containing a Tetrahydropyridopyrimidine Scaffold” (Molecules, 2023).

Read-outs that look alike come from different tables or passages of the source.

Series [1] deals with RPMI-8226. As to the kind of experiment: Antiproliferative assay (Alamar blue, 72 h), RPMI-8226. As to conditions: RPMI-8226 cells, three independent experiments, SD < 10%, read-out: Antiproliferative effect IC50, RPMI-8226. Format: cell-based, human. The method, then: The cells were cultured in IMDM (Gibco) medium with 20% FBS (Lonsera), 100 U/mL penicillin, and 100 µg/mL streptomycin (Solarbio). All cells were maintained at 37 °C in a humidified atmosphere of 5% CO2 in air. Briefly, 100 µL cell suspension or completed medium was plated into a 96-well plate. Compounds were added and incubated for 72 h. Then, 22 µL Alamar blue solution (1 mM) was pipetted into each well of a 96-well plate, and the plate was incubated for an additional 5~6 h. The absorbance (OD) was read at 530/590 nm. Data were normalized to vehicle groups (DMSO) and represented as the means of three independent measurements with standard errors of <20%. The IC50 values were calculated using Prism 5.0.

In series [2] the test system is HL60. Nature of the series: Antiproliferative assay (Alamar blue, 72 h), HL60. The class given is cell-based. As to conditions: Homo sapiens, HL-60, HL60 cells, three independent experiments, SD < 10%, read-out: Antiproliferative effect IC50, HL60.
In series [3] the test system is HCT116. Nature of the series: Antiproliferative assay (Alamar blue, 72 h), HCT116. Format: cell-based. As to conditions: Homo sapiens, HCT-116, HCT116 cells, three independent experiments, SD < 10%, read-out: Antiproliferative effect IC50, HCT116. On the technique in general: The colour change of resazurin is a common sign of viable cells or microbes.
The target of series [4] is T1, HDAC1 (Homo sapiens, UniProt Q13547).
T1 construct: purchased Reaction Biology Corporation
As to the kind of experiment: In vitro HDAC enzyme assay (Reaction Biology Corporation), HDAC1. Format: biochemical. As to conditions: Table 1; duplicate, SD < 15%.

The target in series [5] is T2, HDAC6 (Homo sapiens, UniProt Q9UBN7).
T2 construct: purchased Reaction Biology Corporation
T2 sequence (Q9UBN7 1-1215): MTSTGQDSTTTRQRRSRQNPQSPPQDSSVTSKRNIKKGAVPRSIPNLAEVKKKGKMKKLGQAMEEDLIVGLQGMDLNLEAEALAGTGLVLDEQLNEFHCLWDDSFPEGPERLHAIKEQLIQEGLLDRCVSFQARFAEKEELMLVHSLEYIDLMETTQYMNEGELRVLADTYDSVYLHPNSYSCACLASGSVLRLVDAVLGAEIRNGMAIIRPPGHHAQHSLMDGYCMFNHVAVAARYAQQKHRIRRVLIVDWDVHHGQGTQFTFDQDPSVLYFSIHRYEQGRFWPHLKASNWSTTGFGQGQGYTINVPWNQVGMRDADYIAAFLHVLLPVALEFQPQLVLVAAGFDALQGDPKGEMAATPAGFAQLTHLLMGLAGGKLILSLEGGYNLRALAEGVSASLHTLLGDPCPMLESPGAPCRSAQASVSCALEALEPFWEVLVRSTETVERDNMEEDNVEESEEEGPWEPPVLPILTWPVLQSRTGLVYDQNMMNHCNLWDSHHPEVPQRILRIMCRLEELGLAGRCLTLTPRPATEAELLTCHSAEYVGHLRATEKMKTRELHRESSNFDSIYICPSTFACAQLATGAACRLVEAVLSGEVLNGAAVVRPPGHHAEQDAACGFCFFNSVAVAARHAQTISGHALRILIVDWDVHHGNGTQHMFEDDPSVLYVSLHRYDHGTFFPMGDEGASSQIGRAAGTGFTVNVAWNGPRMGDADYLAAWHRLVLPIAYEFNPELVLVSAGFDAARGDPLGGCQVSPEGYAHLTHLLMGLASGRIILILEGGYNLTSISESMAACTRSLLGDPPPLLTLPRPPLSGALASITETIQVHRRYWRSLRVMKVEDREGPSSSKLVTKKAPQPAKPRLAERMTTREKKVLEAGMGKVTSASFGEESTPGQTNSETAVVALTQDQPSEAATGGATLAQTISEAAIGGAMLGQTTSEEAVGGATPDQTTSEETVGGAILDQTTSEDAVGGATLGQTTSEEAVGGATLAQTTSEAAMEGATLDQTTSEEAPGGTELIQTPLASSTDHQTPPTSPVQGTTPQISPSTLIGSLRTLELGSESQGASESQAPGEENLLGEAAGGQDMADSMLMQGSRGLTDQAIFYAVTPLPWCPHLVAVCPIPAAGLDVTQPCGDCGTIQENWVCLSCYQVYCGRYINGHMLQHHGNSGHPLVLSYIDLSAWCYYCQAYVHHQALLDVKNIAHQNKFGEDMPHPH
Nature of the series: In vitro HDAC enzyme assay (Reaction Biology Corporation), HDAC6. The class given is biochemical. As to conditions: Table 1.

Series [6] concerns acetylated histone 3 (H3). Nature of the series: Western blot, acetylated histone 3 in RPMI-8226 cells. The class given is cell-based, human. The note with it: 24 h, 10 μM, compared to the vehicle. As for the experimental part:
(§1) RPMI-8226 cells (1 × 10^6) were seeded overnight and incubated with compound 8f for 24 h on indicated concentrations. Cell extract was prepared by lysing cultured cells with a mammalian protein extraction reagent supplemented with EDTA-free protease inhibitor for 15 min. SDS-PAGE and immunoblot analysis were conducted as described. Antibodies for Ac-H3 (abcom, AB32129) and Ac-ɑ-tubulin (Cell Signaling, 2144) were used.
A general note: A western blot detects proteins with antibodies after separation by electrophoresis.

The test system of series [7] is acetylated α-tubulin. Nature of the series: Western blot, acetylated α-tubulin in RPMI-8226 cells. The note with it: 24 h, 10 μM, compared to the vehicle. The class given is cell-based, human. The method, then:
as §1

T1 sequence (Q13547 whole entry): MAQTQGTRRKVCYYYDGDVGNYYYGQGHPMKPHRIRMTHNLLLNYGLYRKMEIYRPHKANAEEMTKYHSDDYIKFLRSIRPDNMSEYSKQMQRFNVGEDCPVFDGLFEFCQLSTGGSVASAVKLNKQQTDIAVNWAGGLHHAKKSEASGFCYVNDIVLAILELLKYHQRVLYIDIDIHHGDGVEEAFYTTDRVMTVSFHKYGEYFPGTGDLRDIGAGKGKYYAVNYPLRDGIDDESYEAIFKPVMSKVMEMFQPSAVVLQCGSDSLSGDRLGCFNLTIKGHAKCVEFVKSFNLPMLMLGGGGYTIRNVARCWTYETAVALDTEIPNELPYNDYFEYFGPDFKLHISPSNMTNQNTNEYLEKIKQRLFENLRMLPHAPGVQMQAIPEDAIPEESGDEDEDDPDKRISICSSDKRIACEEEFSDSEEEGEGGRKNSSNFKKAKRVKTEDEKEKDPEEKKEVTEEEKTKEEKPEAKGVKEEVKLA

Turning to `O=C(CCCCCCC(=O)N1CCc2c(nc(-c3cccs3)nc2-c2cccs2)C1)NO` [Compound 8g, 8-(2,4-Di(thiophen-2-yl)-5,8-dihydropyrido [3,4-d]pyrimidin-7(6H)-yl)-N-hydroxy-8-oxooctanamide], the melting point – broadly, the temperature of the solid-liquid transition – was in the range of 128 to 129 °C.
On the same count and under the same terms, the value for `Cc1ccc(-c2nc3c(c(-c4ccc(C)cc4)n2)CCN(C(=O)CCCCCCC(=O)NO)C3)cc1` [Compound 8b, 8-(2,4-di-p-tolyl-5,8-dihydropyrido [3,4-d]pyrimidin-7(6H)-yl)-N-hydroxy-8-oxooctanamide] was 110 to 112 °C.
In the case of `O=C(CCCCCCC(=O)N1CCc2c(nc(-c3ccccc3)nc2-c2ccccc2)C1)NO` [Compound 8a, 8-(2,4-Diphenyl-5,8-dihydropyrido [3,4-d]pyrimidin-7(6H)-yl)-N-hydroxy-8-oxooctanamide], the melting point lay within 115 to 117 °C. The IC50 (as a rule, the concentration at which inhibition is half-maximal) in series [1] (Homo sapiens) stood at 16.3 µM. In series [2], the IC50 worked out at 12.5 µM. Moreover, in series [3], the IC50 came out at 23.4 µM.
With `O=C(CCCCCCC(=O)N1CCc2c(nc(-c3ccc(C(F)(F)F)cc3)nc2-c2ccc(C(F)(F)F)cc2)C1)NO` [Compound 8h, 8-(2,4-Bis(4-(trifluoromethyl)phenyl)-5,8-dihydropyrido [3,4-d]pyrimidin-7(6H)-yl)-N-hydroxy-8-oxooctanamide], the melting point was 145 to 146 °C. The molecule also yielded an IC50 in series [4] of 0.551 µM. In addition, the “Selectivity Index” value in series [5] (HDAC6 against HDAC1) worked out at 26. In series [5] (duplicate, SD < 15%), this molecule came in with an IC50 of 0.0215 µM.
With `O=C(CCCCCCC(=O)Nc1ccccc1)NO` [SAHA, reference compound], the IC50 in series [1] is 0.66 µM. In addition, the “levels of acetylated histone H3” value in series [6] was “increased levels of both acetylated α-tubulin and acetylated histone H3 significantly”. Further, in series [7], the “levels of acetylated α-tubulin” value is “increased levels of both acetylated α-tubulin and acetylated histone H3 significantly”.
In the case of `O=C(CCCCCCNC(=O)c1cnc(N(c2ccccc2)c2ccccc2)nc1)NO` [Compound 1, reference compound], the IC50 turned out to be 1.7 µM in series [1] (Homo sapiens), 4.1 µM in series [2] and 6.5 µM in series [3].
For `O=C(CCCCCCC(=O)N1CCc2c(nc(-c3ccsc3)nc2-c2ccsc2)C1)NO` [Compound 8e, 8-(2,4-Di(thiophen-3-yl)-5,8-dihydropyrido [3,4-d]pyrimidin-7(6H)-yl)-N-hydroxy-8-oxooctanamide], the melting point was in the range of 123 to 124 °C.
On the same count and under the same terms, the value for `O=C(CCCCCCC(=O)N1CCc2c(nc(-c3ccoc3)nc2-c2ccoc2)C1)NO` [Compound 8d, 8-(2,4-Di(furan-3-yl)-5,8-dihydropyrido [3,4-d]pyrimidin-7(6H)-yl)-N-hydroxy-8-oxooctanamide] was 104 to 106 °C.
For `COc1ccc(-c2nc3c(c(-c4ccc(OC)cc4)n2)CCN(C(=O)CCCCCCC(=O)NO)C3)cc1` [Compound 8c, 8-(2,4-Bis(4-methoxyphenyl)-5,8-dihydropyrido [3,4-d]pyrimidin-7(6H)-yl)-N-hydroxy-8-oxooctanamide], the melting point fell in the range of 117 to 118 °C. The IC50 in series [1] (Homo sapiens) amounted to 4.63 µM. Moreover, in series [2], the concentration for half-maximal inhibition (IC50) was found to be 3.78 µM. Also, in series [3], the IC50 is 4.72 µM. Further, 0.472 µM corresponded to half-maximal inhibition in series [4] (IC50).
